Values joined by “and” are separate entries in the source; they are usually repeats but may differ in a detail not shown here. Identical values can stand only once. Like-named read-outs stand apart in the source and are kept apart here.
Assays:
mGluR2 [1] = target: mGluR2 (Mus musculus, UniProt Q14BI2, A548F); test: Live-cell FRET, azi-CRD (cysteine-rich domain) sensor in HEK293T cells; conditions: for Normalized FRET response, Mean (azi-CRD agonist DRC): maximal responses normalized to 1mM glutamate
mGluR2 [2] = target: T1, mGluR2 (Mus musculus, UniProt Q14BI2); test: Live-cell FRET, SNAP-m2 (VFT domain) inter-subunit sensor in HEK293T cells; conditions: for Normalized FRET response, Mean (SNAP-m2 agonist DRC): maximal responses normalized to 1mM glutamate;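 for all read-outs here: apparent FRET efficiency from whole-membrane ROIs of single cells, corrected for donor bleed-through and background, ΔFRET as treatment minus pretreatment signal, recorded at room temperature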
mGluR2 [3] = target: mGluR2 (Mus musculus, UniProt Q14BI2, INS715F); test: Live-cell FRET, azi-ECL2 (7TM domain, extracellular loop 2) sensor in HEK293T cells;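 note: Cy3/Cy5 click-labeled sensor, whole-membrane ROIs per cell, apparent FRET after bleed-through correction, ΔFRET as treatment minus pre-treatment signal, at room temperature, at least three biological replicates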
mGluR2 [4] = target: T1, mGluR2; test: Functional calcium imaging, SNAP-mGluR2 (no FLAG-tag) with chimeric G protein Gqo5 in HEK293T cells; format: cell-based; design: Full length mGluR2 construct with an amber codon (TAG) mutation of amino acid A548 (azi-CRD) or N-terminal SNAP-tag (SNAP-mGluR2); host or cells: HEK293T; conditions: for Intracellular Ca2+ response, Mean / Intracellular Ca2+ response: normalized to 1mM glutamate; for Intracellular Ca2+ response: single experiments

T1 sequence (Q14BI2 19-872): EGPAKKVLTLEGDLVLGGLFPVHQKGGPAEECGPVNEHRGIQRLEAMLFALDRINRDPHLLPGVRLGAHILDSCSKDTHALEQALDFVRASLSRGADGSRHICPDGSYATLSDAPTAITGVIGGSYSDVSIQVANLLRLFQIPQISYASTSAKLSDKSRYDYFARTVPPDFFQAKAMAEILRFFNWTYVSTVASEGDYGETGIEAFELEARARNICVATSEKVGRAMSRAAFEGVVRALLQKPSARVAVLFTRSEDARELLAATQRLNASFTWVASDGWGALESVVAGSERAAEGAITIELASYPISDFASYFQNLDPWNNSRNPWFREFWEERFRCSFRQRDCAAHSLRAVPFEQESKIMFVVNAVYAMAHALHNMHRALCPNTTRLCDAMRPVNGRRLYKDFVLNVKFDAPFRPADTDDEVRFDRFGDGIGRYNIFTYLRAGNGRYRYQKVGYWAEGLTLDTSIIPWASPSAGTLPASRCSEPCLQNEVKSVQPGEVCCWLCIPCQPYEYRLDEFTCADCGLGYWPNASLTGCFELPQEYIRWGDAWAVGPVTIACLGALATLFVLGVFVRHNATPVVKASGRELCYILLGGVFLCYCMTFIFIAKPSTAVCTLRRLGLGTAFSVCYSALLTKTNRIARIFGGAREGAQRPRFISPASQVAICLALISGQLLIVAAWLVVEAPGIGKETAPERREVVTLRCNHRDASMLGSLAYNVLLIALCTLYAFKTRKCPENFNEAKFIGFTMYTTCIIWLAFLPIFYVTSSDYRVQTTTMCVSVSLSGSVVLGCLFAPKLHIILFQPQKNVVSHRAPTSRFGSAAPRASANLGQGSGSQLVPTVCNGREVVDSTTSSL
Chain of mGluR2 (Mus musculus, UniProt Q14BI2, A548F) (Q14BI2 19-872 A548F): as the sequence (Q14BI2 19-872) above, with A530F counted along it
Chain of mGluR2 (Mus musculus, UniProt Q14BI2, INS715F) (Q14BI2 with tags, fused parts or gaps INS715F): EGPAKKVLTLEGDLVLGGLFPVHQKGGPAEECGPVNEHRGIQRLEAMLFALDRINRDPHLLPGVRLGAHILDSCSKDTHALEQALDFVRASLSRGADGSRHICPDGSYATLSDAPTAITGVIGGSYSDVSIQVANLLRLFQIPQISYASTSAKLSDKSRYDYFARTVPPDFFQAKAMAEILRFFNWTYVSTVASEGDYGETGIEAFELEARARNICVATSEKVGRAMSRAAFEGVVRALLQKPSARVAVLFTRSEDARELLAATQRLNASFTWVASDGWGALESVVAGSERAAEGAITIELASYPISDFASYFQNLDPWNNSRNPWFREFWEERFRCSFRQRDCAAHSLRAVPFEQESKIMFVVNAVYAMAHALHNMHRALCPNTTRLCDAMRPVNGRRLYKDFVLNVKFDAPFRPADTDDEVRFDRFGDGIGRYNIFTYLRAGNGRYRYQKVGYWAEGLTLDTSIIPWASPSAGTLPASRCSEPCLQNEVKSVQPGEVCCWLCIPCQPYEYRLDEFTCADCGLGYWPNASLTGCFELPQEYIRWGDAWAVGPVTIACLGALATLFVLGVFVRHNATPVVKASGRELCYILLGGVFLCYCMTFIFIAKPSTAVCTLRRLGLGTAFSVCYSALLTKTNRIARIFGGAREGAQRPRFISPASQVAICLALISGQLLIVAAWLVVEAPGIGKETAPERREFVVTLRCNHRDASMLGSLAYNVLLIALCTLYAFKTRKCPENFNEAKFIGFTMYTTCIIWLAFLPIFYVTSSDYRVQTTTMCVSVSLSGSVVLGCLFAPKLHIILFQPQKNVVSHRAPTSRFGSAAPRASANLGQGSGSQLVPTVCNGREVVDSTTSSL

## N[C@@]1(C(=O)O)CN[C@@H](C(=O)O)C1 [(2R,4R)-APDC]
mGluR2 [1]; azi-CRD sensor, orthosteric agonist alone
  Hill slope: 1.10
mGluR2 [1]; azi-CRD sensor, (2R,4R)-APDC, individual values (N=13)
  Live-cell FRET max response normalized to 1mM glutamate: 1.025 and 1.046 and 1.029 and 1.018 and 1.041 and 0.9926 and 1.05 and 1.031 and 1.033 and 1.059 and 0.9828 and 0.9967 and 0.9994
mGluR2 [1]; azi-CRD, agonist alone (1 mM glutamate, 100 μM DCG-IV, 20 μM LY379268, 100 μM APDC), normalized to 1 mM glutamate
  Mean max response (normalized max ΔFRET): 1.02
mGluR2 [1]; azi-CRD, 100μM agonist, individual cells, normalized to 1mM glutamate
  Normalized Max ΔFRET: 105.882 and 99.2629 and 105.009 and 103.1 and 103.252 and 98.2759 and 99.67 and 99.937 and 102.531 and 104.556 and 102.893 and 101.835 and 104.136
mGluR2 [1]; azi-CRD, 100μM agonist, mean of cells, normalized to 1mM glutamate
  Normalized Max ΔFRET, Mean: 102.334
mGluR2 [1]; log[ligand] (M) -4
  Normalized FRET response, Mean (azi-CRD agonist DRC): 1.023
mGluR2 [1]; log[ligand] (M) -4.1549
  Normalized FRET response, Mean (azi-CRD agonist DRC): 1.003
mGluR2 [1]; log[ligand] (M) -4.52288
  Normalized FRET response, Mean (azi-CRD agonist DRC): 0.929
mGluR2 [1]; log[ligand] (M) -5
  Normalized FRET response, Mean (azi-CRD agonist DRC): 0.7432
mGluR2 [1]; log[ligand] (M) -5.39794
  Normalized FRET response, Mean (azi-CRD agonist DRC): 0.4945
mGluR2 [1]; log[ligand] (M) -5.82391
  Normalized FRET response, Mean (azi-CRD agonist DRC): 0.2779
mGluR2 [1]; log[ligand] (M) -6.52288
  Normalized FRET response, Mean (azi-CRD agonist DRC): 0.07413
mGluR2 [1]; log[ligand] (M) -7
  Normalized FRET response, Mean (azi-CRD agonist DRC): 0
mGluR2 [1]; read-out: Mean half-maximum effective concentration (EC50), azi-CRD sensor, orthosteric agonist alone
  EC50: 6.5 µM
mGluR2 [2]; SNAP-m2 (VFT), agonist alone (1 mM glutamate, 100 μM DCG-IV, 20 μM LY379268, 100 μM APDC), normalized to 1 mM glutamate
  Mean max response (normalized max ΔFRET): 0.96
mGluR2 [2]; SNAP-m2, 100μM agonist, individual cells, normalized to 1mM glutamate
  Normalized Max ΔFRET: 103.479 and 93.3266 and 93.5994 and 94.2433 and 93.7977 and 94.1947 and 102.7 and 100.974 and 101.936 and 101.611 and 93.0019 and 94.3775 and 90.2119 and 91.2088
mGluR2 [2]; SNAP-m2, 100μM agonist, mean of cells, normalized to 1mM glutamate
  Normalized Max ΔFRET, Mean: 96.333
mGluR2 [2]; SNAP-m2 sensor, orthosteric agonist alone
  Hill slope: –1.10
mGluR2 [2]; SNAP-m2 sensor, (2R,4R)-APDC, individual values (N=14)
  Live-cell FRET max response normalized to 1mM glutamate: 1.016 and 0.93 and 0.9438 and 0.9021 and 0.9121 and 0.9333 and 0.936 and 0.9424 and 0.938 and 0.9419 and 1.035 and 1.027 and 1.01 and 1.019
mGluR2 [2]; log[ligand] (M) -4
  Normalized FRET response, Mean (SNAP-m2 agonist DRC): -0.9633
mGluR2 [2]; log[ligand] (M) -4.52288
  Normalized FRET response, Mean (SNAP-m2 agonist DRC): -0.8729
mGluR2 [2]; log[ligand] (M) -5
  Normalized FRET response, Mean (SNAP-m2 agonist DRC): -0.684
mGluR2 [2]; log[ligand] (M) -5.39794
  Normalized FRET response, Mean (SNAP-m2 agonist DRC): -0.4889
mGluR2 [2]; log[ligand] (M) -6
  Normalized FRET response, Mean (SNAP-m2 agonist DRC): -0.1727
mGluR2 [2]; log[ligand] (M) -6.52288
  Normalized FRET response, Mean (SNAP-m2 agonist DRC): -0.05437
mGluR2 [2]; log[ligand] (M) -7
  Normalized FRET response, Mean (SNAP-m2 agonist DRC): 0
mGluR2 [2]; log[ligand] (M) -7.69897
  Normalized FRET response, Mean (SNAP-m2 agonist DRC): 0
mGluR2 [2]; read-out: Live-cell FRET titration EC50, SNAP-m2, agonist alone, individual experiments
  EC50: 2.88 µM and 3.03 µM and 3.16 µM and 22.1 µM and 5.53 µM and 4.87 µM
mGluR2 [2]; read-out: Mean half-maximum effective concentration (EC50), SNAP-m2 sensor, orthosteric agonist alone
  EC50: 6.9 µM
mGluR2 [3]; azi-ECL2, agonist alone (1 mM glutamate, 100 μM DCG-IV, 20 μM LY379268, 100 μM APDC), normalized to 1 mM glutamate
  Mean max response (normalized max ΔFRET): 1.05
mGluR2 [3]; azi-ECL2, log[agonist] (M) -4, normalized to 1 mM glutamate
  Normalized ΔFRET response, Mean (agonist DRC): 1.046
mGluR2 [3]; azi-ECL2, log[agonist] (M) -4.1549, normalized to 1 mM glutamate
  Normalized ΔFRET response, Mean (agonist DRC): 1.0205
mGluR2 [3]; azi-ECL2, log[agonist] (M) -4.52288, normalized to 1 mM glutamate
  Normalized ΔFRET response, Mean (agonist DRC): 0.9248
mGluR2 [3]; azi-ECL2, log[agonist] (M) -5, normalized to 1 mM glutamate
  Normalized ΔFRET response, Mean (agonist DRC): 0.7108
mGluR2 [3]; azi-ECL2, log[agonist] (M) -5.39794, normalized to 1 mM glutamate
  Normalized ΔFRET response, Mean (agonist DRC): 0.4486
mGluR2 [3]; azi-ECL2, log[agonist] (M) -5.82391, normalized to 1 mM glutamate
  Normalized ΔFRET response, Mean (agonist DRC): 0.2358
mGluR2 [3]; azi-ECL2, log[agonist] (M) -6.52288, normalized to 1 mM glutamate
  Normalized ΔFRET response, Mean (agonist DRC): 0.04024
mGluR2 [3]; azi-ECL2, log[agonist] (M) -7, normalized to 1 mM glutamate
  Normalized ΔFRET response, Mean (agonist DRC): 0
mGluR2 [3]; azi-ECL2, 100μM agonist, mean of cells, normalized to 1mM glutamate
  Normalized Max ΔFRET, Mean: 104.617
mGluR2 [3]; azi-ECL2 sensor, orthosteric agonist alone
  Hill slope: 1.14
mGluR2 [3]; read-out: EC50, live-cell FRET titration, azi-ECL2 sensor, (2R,4R)-APDC, individual cell values (N=13)
  EC50: 8.97 µM and 10.9 µM and 18.9 µM and 4.32 µM and 2.57 µM and 2.14 µM and 6.27 µM and 6.18 µM and 3.15 µM and 4.64 µM and 4.05 µM and 5.53 µM
mGluR2 [3]; read-out: Mean half-maximum effective concentration (EC50), azi-ECL2 sensor, orthosteric agonist alone
  EC50: 6.7 µM
mGluR2 [4]; 100 μM DCG-IV, 10 μM LY379268, 300 μM APDC, normalized to 1 mM glutamate, single replicate
  Normalized Max Intracellular Ca2+ Response, individual experiments: 1.151 and 1.196 and 0.9567
mGluR2 [4]; 1 mM Glu, 100 μM DCG-IV, 10 μM LY379268, 300 μM APDC, normalized to 1 mM glutamate
  Normalized Max Intracellular Ca2+ Response, mean: 1.101
mGluR2 [4]; log[agonist] (M) -3.52288
  Intracellular Ca2+ response, Mean: 1.101
  Intracellular Ca2+ response: 1.101
mGluR2 [4]; log[agonist] (M) -3.82391
  Intracellular Ca2+ response, Mean: 1.121
  Intracellular Ca2+ response: 1.13 and 1.129 and 1.105
mGluR2 [4]; log[agonist] (M) -4
  Intracellular Ca2+ response, Mean: 1.103
  Intracellular Ca2+ response: 1.155 and 1.085 and 1.068
mGluR2 [4]; log[agonist] (M) -4.52288
  Intracellular Ca2+ response, Mean: 0.9624
  Intracellular Ca2+ response: 0.9835 and 0.9555 and 0.9483
mGluR2 [4]; log[agonist] (M) -5
  Intracellular Ca2+ response, Mean: 0.7274
  Intracellular Ca2+ response: 0.6253 and 0.7115 and 0.8453
mGluR2 [4]; log[agonist] (M) -5.39794
  Intracellular Ca2+ response, Mean: 0.3932
  Intracellular Ca2+ response: 0.2825 and 0.3895 and 0.5075
mGluR2 [4]; log[agonist] (M) -6
  Intracellular Ca2+ response, Mean: 0
  Intracellular Ca2+ response: 0
mGluR2 [4]; log[agonist] (M) -6.52288
  Intracellular Ca2+ response, Mean: 0
  Intracellular Ca2+ response: 0
mGluR2 [4]; log[agonist] (M) -7
  Intracellular Ca2+ response, Mean: 0
  Intracellular Ca2+ response: 0
mGluR2 [4]; log[agonist] (M) -7.69897
  Intracellular Ca2+ response, Mean: 0
  Intracellular Ca2+ response: 0
mGluR2 [4]; log[agonist] (M) -8
  Intracellular Ca2+ response, Mean: 0
  Intracellular Ca2+ response: 0
mGluR2 [4]; one value per experiment, read-out: EC50, intracellular Ca2+ response
  EC50: 4.48 µM and 8.58 µM and 6.56 µM

Reference: PMC9299836 (eLife, 2022)
